Measured values taken from US11325919B1, “Synthetic novel pyrroloiminoquinone alkaloid and method of use” (priority 2019, dated 2022).
“Also recorded” adds a separate entry of the source.

Tests used:
U251N = test: differential cytotoxicity zone assay, U251N; type: cell-based
Excerpt: (§1) Discorhabdin A is the precursor to aleutianamine.

[1] = test system: PANC-1 pancreatic cancer cells; test: cytotoxicity IC50, PANC-1 pancreatic cancer cells; type: cell-based; details: Homo sapiens; pancreatic cancer (PANC-1)
PANC-1 = test: differential cytotoxicity zone assay, PANC-1; type: cell-based, human
Excerpt: as §1

HCT-116 cells = test: clonogenic studies, concentration-survival as function of exposure time; type: cell-based, human
Method: Clonogenic studies were carried out using HCT-116 cells to define the concentration-survival relationship as a function of exposure time.^26 The endpoint used, tS10 (10% survival of clonogenic cells for exposure time t) provides information essential for future preclinical therapeutic studies. These clonogenic studies based on formula II yielded a 2S10 value of >5 μM; a 24S10 value of 0.75 μM; and a 168S10 value of 0.1 μM. […] Compounds shown in Formula I are simple modifications and bio-isosteres and would have similar activity to the compound of formula II.

MCF-7 = test: differential cytotoxicity zone assay, MCF-7; type: cell-based, human
Excerpt: as §1

MDA = test: differential cytotoxicity zone assay, MDA; type: cell-based
Excerpt: as §1

OVC-5 = test: differential cytotoxicity zone assay, OVC-5; type: cell-based
Excerpt: as §1

[2] = test system: human HCT-116 colon cancer cells; test: cytotoxicity IC50, HCT-116 colon cancer cells; type: cell-based
H-116 = test: differential cytotoxicity zone assay, H-116; type: cell-based, human
Excerpt: as §1

CEM = test: differential cytotoxicity zone assay, CEM; type: cell-based, human
Excerpt: as §1

LNCaP = test: differential cytotoxicity zone assay, LNCaP; type: cell-based, human
Excerpt: as §1

[3] = test system: solid tumor cell lines compared to murine and human leukemia cells; test: differential cytotoxicity zone assay, solid tumor selectivity versus leukemia cells; type: cell-based
Excerpt: as §1

L1210 = test: differential cytotoxicity zone assay, L1210; type: cell-based, murine
Excerpt: as §1

CFU-GM = test: differential cytotoxicity zone assay, CFU-GM; type: cell-based
Excerpt: as §1

H-125 = test: differential cytotoxicity zone assay, H-125; type: cell-based
Excerpt: as §1

Colon 38 = test: differential cytotoxicity zone assay, Colon 38; type: cell-based, murine
Excerpt: as §1

topoisomerase II = details: cited from earlier work
solid human tumor = solid human tumor model; cited from earlier work

O=C1C2=C3C4=[N+](CCc5c[nH]c1c54)[C@@H]1C[C@]34S[C@@H](C=C4C=C1Br)N2 [Aleutianamine]
zones of inhibition (U251N; Conc. 1/16): 850 mm | zones of inhibition (U251N; Conc. 1/64): 700 mm | zones of inhibition (U251N; Conc. ¼): >1000 mm | IC50 [1]: 25 nM | zones of inhibition (PANC-1; Conc. 1/16): >1000 mm | zones of inhibition (PANC-1; Conc. 1/64): 650 mm | 2S10 (10% survival of clonogenic cells for exposure time t) (HCT-116 cells; exposure time 2): > 5 µM | 24S10 (10% survival of clonogenic cells for exposure time t) (HCT-116 cells; exposure time 24): 0.75 µM | 168S10 (10% survival of clonogenic cells for exposure time t) (HCT-116 cells; exposure time 168): 0.1 µM | zones of inhibition (MCF-7; Conc. 1/16): >1000 mm | zones of inhibition (MCF-7; Conc. 1/64): 600 mm | zones of inhibition (MCF-7; Conc. ¼): >1000 mm | zones of inhibition (MDA; Conc. 1/16): 800 mm | zones of inhibition (MDA; Conc. 1/64): 500 mm | zones of inhibition (MDA; Conc. ¼): >1000 mm | zones of inhibition (OVC-5; Conc. 1/16): 700 mm | zones of inhibition (OVC-5; Conc. 1/64): 350 mm | zones of inhibition (OVC-5; Conc. ¼): 900 mm | IC50 ([2]; colon cancer (H116)): 1000 nM | IC50 ([2]; colon cancer (H116 / HCT-116)): 1000 nM | zones of inhibition (H-116; Conc. 2 mg/ml): >1000 mm | zones of inhibition (H-116; Conc. 1/16): 600 mm | zones of inhibition (H-116; Conc. 1/64): 250 mm | zones of inhibition (H-116; Conc. ¼): 950 mm | zones of inhibition (CEM; Conc. 1/16): 750 mm | zones of inhibition (CEM; Conc. 1/64): 350 mm | zones of inhibition (CEM; Conc. ¼): 900 mm | zones of inhibition (LNCaP; Conc. 1/16): 1000 mm | zones of inhibition (LNCaP; Conc. 1/64): 500 mm | selectivity of cell killing [3]: solid tumor selectivity; also recorded: highly potent and selective for pancreatic and breast cancer as well as gliobastoma | zones of inhibition (L1210; Conc. 2 mg/ml): 950 mm | zones of inhibition (L1210; Conc. 1/16): 500 mm | zones of inhibition (L1210; Conc. 1/64): 250 mm | zones of inhibition (L1210; Conc. ¼): 700 mm | zones of inhibition (CFU-GM; Conc. 1/16): >1000 mm | zones of inhibition (CFU-GM; Conc. 1/64): 750 mm | zones of inhibition (CFU-GM; Conc. ¼): >1000 mm | zones of inhibition (H-125; Conc. 1/16): 900 mm | zones of inhibition (H-125; Conc. 1/64): 400 mm | zones of inhibition (H-125; Conc. ¼): >1000 mm | zones of inhibition (Colon 38; Conc. 2 mg/ml): >1000 mm | zones of inhibition (Colon 38; Conc. 1/16): 900 mm | zones of inhibition (Colon 38; Conc. 1/64): 450 mm | zones of inhibition (Colon 38; Conc. ¼): >1000 mm

O=C1CC2SC3C[C@]2(C=C1Br)C1=C(N3)C(=O)c2[nH]cc3c2C1=NCC3 (stereo partly drawn) [Discorhabdin A, discorhabdin A]
inhibition of topoisomerase II (topoisomerase II): no inhibition | zones of inhibition (U251N; Conc. 1/16): 300 mm | zones of inhibition (U251N; Conc. 1/64): 200 mm | zones of inhibition (U251N; Conc. ¼): 300 mm | zones of inhibition (PANC-1; Conc. 1/16): 150 mm | zones of inhibition (PANC-1; Conc. 1/64): 100 mm | zones of inhibition (PANC-1; Conc. ¼): 450 mm | zones of inhibition (MCF-7; Conc. 1/16): 600 mm | zones of inhibition (MCF-7; Conc. 1/64): 350 mm | zones of inhibition (MCF-7; Conc. ¼): 800 mm | zones of inhibition (MDA; Conc. 1/16): 500 mm | zones of inhibition (MDA; Conc. 1/64): 300 mm | zones of inhibition (MDA; Conc. ¼): 1000 mm | zones of inhibition (OVC-5; Conc. 1/16): 500 mm | zones of inhibition (OVC-5; Conc. 1/64): 200 mm | zones of inhibition (OVC-5; Conc. ¼): 700 mm | zones of inhibition (H-116; Conc. 2 mg/ml): >1000 mm | zones of inhibition (H-116; Conc. 1/16): 500 mm | zones of inhibition (H-116; Conc. ¼): 900 mm | zones of inhibition (CEM; Conc. 1/16): 100 mm | zones of inhibition (CEM; Conc. 1/64): 50 mm | zones of inhibition (CEM; Conc. ¼): 450 mm | zones of inhibition (LNCaP; Conc. 1/16): 500 mm | zones of inhibition (LNCaP; Conc. 1/64): 250 mm | zones of inhibition (L1210; Conc. 2 mg/ml): 1000 mm | zones of inhibition (L1210; Conc. 1/16): 250 mm | zones of inhibition (L1210; Conc. ¼): 300 mm | zones of inhibition (CFU-GM; Conc. 1/16): 300 mm | zones of inhibition (CFU-GM; Conc. ¼): >1000 mm | zones of inhibition (H-125; Conc. 1/16): 750 mm | zones of inhibition (H-125; Conc. 1/64): 400 mm | zones of inhibition (H-125; Conc. ¼): 950 mm | zones of inhibition (Colon 38; Conc. 2 mg/ml): 750 mm | zones of inhibition (Colon 38; Conc. 1/16): 700 mm | zones of inhibition (Colon 38; Conc. ¼): 800 mm

C[C@H]([C@H](O)CCC(C)(C)O)[C@H]1CC[C@@]2(O)C3=CC(=O)[C@@H]4C[C@@H](O)[C@@H](O)C[C@]4(C)[C@H]3CC[C@]12C [Ecdysone]
zones of inhibition (U251N; Conc. 2 mg/ml): 0 mm | zones of inhibition (PANC-1; Conc. 2 mg/ml): 0 mm | zones of inhibition (MCF-7; Conc. 2 mg/ml): 0 mm | zones of inhibition (MDA; Conc. 2 mg/ml): 0 mm | zones of inhibition (OVC-5; Conc. 2 mg/ml): 0 mm | zones of inhibition (H-116; Conc. 2 mg/ml): 0 mm | zones of inhibition (LNCaP; Conc. 2 mg/ml): 0 mm | zones of inhibition (L1210; Conc. 2 mg/ml): 0 mm | zones of inhibition (H-125; Conc. 2 mg/ml): 0 mm | zones of inhibition (Colon 38; Conc. 2 mg/ml): 0 mm

Cn1cc2c3c1C(=O)C(N)=CC3=NCC2 [Makaluvamine A]
tumor size (solid human tumor): decrease tumor size

C[N+]1=C2C=C(N)C(=O)c3[nH]cc(c32)CC1.[Cl-] [Makaluvamine C]
tumor size (solid human tumor): decrease tumor size

karlotoxin 2
zones of inhibition (U251N; Conc. 2 mg/ml): 150 mm | zones of inhibition (PANC-1; Conc. 2 mg/ml): 200 mm | zones of inhibition (MCF-7; Conc. 2 mg/ml): 200 mm | zones of inhibition (MDA; Conc. 2 mg/ml): 200 mm | zones of inhibition (OVC-5; Conc. 2 mg/ml): 200 mm | zones of inhibition (H-116; Conc. 2 mg/ml): 200 mm | zones of inhibition (CEM; Conc. 2 mg/ml): 100 mm | zones of inhibition (LNCaP; Conc. 2 mg/ml): 400 mm | zones of inhibition (L1210; Conc. 2 mg/ml): 150 mm | zones of inhibition (H-125; Conc. 2 mg/ml): 100 mm | zones of inhibition (Colon 38; Conc. 2 mg/ml): 200 mm
